Values after ≈ are worked out from the molar mass of the structure shown. Blank lines part the entries; values can stand above or below the compound they belong to.
Key:
[1] = system: L. amazonensis promastigotes; experiment: Cell size (FSC-H, flow cytometry); format: cell-based, Leishmania amazonensis; settings: 2 × IC50, 24 h
Protocol: Promastigotes at 1 × 10^6 parasites mL^−1 treated with BT‐1 for 24 h were washed twice and resuspended in phosphate‐buffered saline (PBS), then analyzed using a FACSCalibur flow cytometer (BD Biosciences, Franklin Lakes, NJ, USA) equipped with CellQuest software. As a positive control, […] actinomycin D was used. A total of 10,000 events were acquired in the region that corresponded to the parasites. Histograms were generated for each sample, where the forward light scatter (FSC‐H) represents the cell volume (Lazarin‐Bidóia et al. [2013]).

[2] = system: L. amazonensis promastigote forms; experiment: Antiproliferative assay (XTT); format: cell-based, Leishmania amazonensis
Protocol: L. amazonensis MHOM/BR/75/Josefa strain was originally isolated from a human case of CL by Dr. […]. Cuba at the University of Brasilia, Brazil (Saraiva et al. [1983]; Cuba et al. [1985]). […] The activity against promastigotes was evaluated by XTT (0.5 mg mL^-1), as previously described (Meshulam et al. [1995]). Absorbance was read in a microplate spectrophotometer (PowerWave XS; BioTek, Winooski, VT, USA) at 450 nm.

[3] = system: L. amazonensis promastigotes; experiment: Reactive oxygen species production (H2DCFDA); format: cell-based, Leishmania amazonensis
Protocol: Promastigotes at 1 × 10^6 parasites mL^−1 treated with BT‐1 for 24 h were incubated with 10 μM H2DCFDA in the dark for 45 min. As a positive control, 50 μM H2O2 was used. The fluorescence was determined by oxidation of H2DCFDA to the fluorescent product, 2′‐7ʹ dichlorofluorescein (DCF), which was measured in a Victor X3 spectrofluorimeter (PerkinElmer, Waltham, MA, USA) at λex of 488 nm and λem of 530 nm (Shukla et al. [2012]).

J774A.1 macrophages = experiment: Cytotoxicity assay in macrophages (MTT); format: cell-based; settings: at 23.2 μM (IC50 against promastigotes)
[4] = system: L. amazonensis promastigote forms; experiment: Morphological and ultrastructural changes (SEM, TEM); format: cell-based, Leishmania amazonensis; settings: IC50 or 2 × IC50, 72 h
Protocol: After this, the parasites were fixed in a solution of 2.5% glutaraldehyde in 0.1 M cacodylate buffer for 24 h at 4°C. For scanning electron microscopy (SEM), the parasites were dehydrated in increasing concentrations of ethanol, critical point‐dried in CO2, sputter‐coated with gold, and observed in a Quanta 250 scanning electron microscope (FEI Company, Hillsboro, OR, USA). For transmission electron microscopy (TEM), the parasites were fixed as described for SEM. After this, the parasites were postfixed in a solution of 1% OsO4, 0.8% K4[Fe(CN)6], and 10 mM CaCl2 in 0.1 M cacodylate buffer. The samples were dehydrated in increasing concentrations of acetone and embedded in Poly/Bed 812 resin. Ultrathin sections were then obtained, contrasted with uranyl acetate and lead citrate, and observed in a JEM 1400 transmission electron microscope (JEOL Ltd., Tokyo, Japan).

[5] = system: L. amazonensis promastigotes; experiment: Cell cycle (PI-RNAse A, flow cytometry); format: cell-based, Leishmania amazonensis; settings: IC50, 24 h
Protocol: Promastigotes at 1 × 10^6 parasites mL^−1 treated with BT‐1 for 24 h were fixed in 70% cold methanol in PBS at 4°C for 2 h. Afterward, the parasites were washed in PBS, 10 μg mL^−1 PI‐RNAse A was added, and the samples were incubated at 37°C for 45 min. The data acquisition and analysis were performed using a FACSCalibur flow cytometer (BD Biosciences, Franklin Lakes, NJ, USA) equipped with CellQuest software. A total of 10,000 events were acquired in the region that corresponded to the parasites. As a positive control, 40 μM miltefosine was used. The percentages of cells in each stage of the cell cycle were determined based on the intensity of the PI fluorescence, which is directly proportional to the DNA content.

[6] = system: L. amazonensis promastigotes; experiment: Cell membrane integrity (PI, flow cytometry); format: cell-based, Leishmania amazonensis
Protocol: Promastigotes at 1 × 10^6 parasites mL^−1 treated with BT‐1 for 24 h were incubated with 0.2 μg mL^−1 PI for 10 min. As a positive control, 40 μM digitonin was used. The data acquisition and analysis were performed using a FACSCalibur flow cytometer (BD Biosciences, Franklin Lakes, NJ, USA) equipped with CellQuest software. A total of 10,000 events were acquired in the region that corresponded to the parasites. Alterations in PI fluorescence were quantified as the percentage increase in fluorescence compared with the untreated parasites (Lazarin‐Bidóia et al. [2013]).

[7] = system: L. amazonensis promastigotes; experiment: Mitochondrial membrane potential (Rh123, flow cytometry); format: cell-based, Leishmania amazonensis; settings: for Mitochondrial potential: Average (Median): 24 h, Rh123 fluorescence
Protocol: Promastigotes at 1 × 10^6 parasites mL^−1 treated with BT‐1 for 24 h were incubated with 5 μg mL^−1 Rh123, a fluorescent probe that accumulates in mitochondria, for 15 min (Menna‐Barreto, Corrêa, et al. [2009]; Menna‐Barreto, Goncalves, et al. [2009]). As a positive control, 100 μM CCCP was used. The data acquisition and analysis were performed using a FACSCalibur flow cytometer (BD Biosciences, Franklin Lakes, NJ, USA) equipped with CellQuest software. A total of 10,000 events were acquired in the region corresponding to the parasites.

[8] = system: L. amazonensis promastigotes; experiment: Lipid bodies accumulation (Nile red); format: cell-based, Leishmania amazonensis
Protocol: Promastigotes at 1 × 10^6 parasites mL^−1 treated with BT‐1 for 24 h were incubated with 10 μg mL^−1 Nile red, a lipophilic stain, for 30 min at 25°C. The fluorescence was measured in a Victor X3 spectrofluorimeter (PerkinElmer, Waltham, MA, USA) at λex of 485 nm and λem of 535 nm (Stefanello et al. [2014]).

[9] = Cytotoxicity assay in macrophages (MTT); format: cell-based; settings: mouse, J774A.1 macrophages, pH 7.2
Protocol: L. amazonensis MHOM/BR/75/Josefa strain was originally isolated from a human case of CL by Dr. Cesar A. Cuba at the University of Brasilia, Brazil (Saraiva et al. [1983]; Cuba et al. [1985]). Promastigote forms of this strain were maintained axenically in Warren's medium (brain–heart infusion plus hemin and folic acid; pH 7.2) supplemented with 10% heat‐inactivated FBS and maintained at 25°C. J774A.1 macrophages (obtained from the Cell Bank of Rio de Janeiro, RJ, Brazil) were maintained in RPMI‐1640 medium (pH 7.2), supplemented with sodium bicarbonate, L‐glutamine, 10% FBS, and streptomycin and penicillin at 37°C in a 5% CO2 atmosphere.
Cytotoxicity was evaluated in the J774A.1 macrophages. Macrophages (5 × 10^5 cells mL^−1) were cultured in 96‐well microplates containing RPMI‐1640 medium supplemented with 10% FBS. The plates were incubated at 37°C in a 5% CO2 atmosphere for confluent growth of the cells. After 24 h, the compounds were added to each well at increasing concentrations (31.25–1000 μM) and incubated for 48 h at 37°C in a 5% CO2 atmosphere. The cytotoxicity was evaluated by MTT (2 mg mL^−1), as previously described (Mosmann [1983]). Absorbance was read in a microplate spectrophotometer (PowerWave XS; BioTek, […], VT, USA) at 570 nm.

[10] = system: L. amazonensis promastigotes; experiment: Lipid peroxidation assay (DPPP); format: cell-based, Leishmania amazonensis
Protocol: Promastigotes at 1 × 10^6 parasites mL^−1 treated with BT‐1 for 24 h were incubated with 50 μM DPPP for 15 min at 22°C. As a positive control, 50 μM H2O2 was used. The fluorescence was determined in a Victor X3 spectrofluorimeter (PerkinElmer, Waltham, MA, USA) at λex of 355 nm and λem of 460 nm. DPPP is essentially nonfluorescent until it is oxidized to a phosphine oxide (DPPP‐O) by peroxides (Okimoto et al. [2000]).

[11] = system: Leishmania amazonensis amastigote; design: method as in Takahashi et al. [2011]; settings: previous work; ref Takahashi et al. [2011]; cited from earlier work
[12] = system: Leishmania amazonensis promastigote; design: method as in Takahashi et al. [2011]; settings: previous work; ref Takahashi et al. [2011]; cited from earlier work

IC50 ([2]; Leishmania amazonensis, 72 h, 25°C, XTT, read-out: L. amazonensis (promastigotes) IC50): 23.2 ± 1.1 µM
SMILES: CCC(O)C#Cc1ccc(-c2ccc(C=O)s2)s1 (stereo not shown) [Compound 1]
decrease in cell size compared with the untreated control [1]: 1.45 fold
Selectivity index (SI) ([2]; ratio between the CC50 (J774A.1 macrophages) and IC50 (promastigotes)): 9.33
increase in the production of total ROS vs untreated control ([3]; 2 × IC50, 24 h): 9.0 fold
increase in the production of total ROS vs untreated control ([3]; IC50, 24 h): 3.0 fold
toxicity to J774A.1 macrophages (J774A.1 macrophages): no toxicity
morphological alterations by SEM [4]: rounded shape and a reduction in cell body size, cell surface roughness, a shorter flagellum, and extravasation of cytoplasmic content
ultrastructural alterations by TEM [4]: presence of lipid bodies, loss of cell content, disorganization of the nucleus, a large amount of exocytic activity, and mitochondrial swelling
increase of cells in G0/G1 phase [5]: 1.3 fold
increase of cells in sub-G0/G1 phase [5]: 2.22 fold
increase of PI-stained cells vs untreated control ([6]; 2 × IC50, 24 h): 11.13 fold
increase of PI-stained cells vs untreated control ([6]; IC50, 24 h): 3.48 fold
Mitochondrial potential: Average (Median) ([7]; 23.2 μM (IC50)): 1841.42
Mitochondrial potential: Average (Median) ([7]; 46.4 μM (2 × IC50)): 796.77
reduction of mitochondrial potential compared with the untreated control ([7]; 2 × IC50, 24 h): 2.75 fold
increase in lipid body accumulation vs untreated control ([8]; 2 × IC50, 24 h): 1.5 fold
increase in lipid body accumulation vs untreated control ([8]; IC50, 24 h): 1.4 fold
CC50 at 48 h [9]: 216 ± 5.1 µM
increase in lipoperoxidation vs untreated control ([10]; 2 × IC50, 24 h): 8.0 fold
increase in lipoperoxidation vs untreated control ([10]; IC50, 24 h): 3.0 fold

SMILES: CC(=O)OCCC#Cc1ccc(-c2ccc(C)s2)s1 [I, 5′‐methyl‐(5‐[4‐acetoxy‐1‐butynyl])‐2,2′‐bithiophene]
IC50 amastigote [11]: 28.7 ± 2.6 µg/mL (≈ 98.8 µM)
IC50 promastigote [12]: 21.3 ± 4.4 µg/mL (≈ 73.3 µM)

Source: PMC12374030, “Hydroxyalkyne–Bithiophene Derivatives: Synthesis and Antileishmanial Activity” (Chemical Biology & Drug Design, 2025)
